Results published in patent publication US9790231B2 (LUPIN LIMITED, priority 2013, dated 2017).

System: IL-2 secretion by Jurkat T cells
Test: Inhibition of IL-2 secretion (PHA-stimulated Jurkat T cells, ELISA)
Format: cell-based
Settings: Homo sapiens, 20 to 24 hours
Experimental: The CRAC channel modulatory activity of the compounds were thus evaluated by measuring the secretion of IL-2 by antigen stimulated T-cells in vitro. Alternatively, such activity can also be evaluated by assay methods known to one skilled in the art.
Inhibition of IL-2 secretion: Jurkat T cells were seeded at a density of 0.5 to 1 million cells per well in RPMI medium. Test compounds from this invention were added to the cells at different concentrations. This was followed by the addition of PHA, a T cell mitogen after 10 minutes. The cells were then incubated for 20 to 24 hours in a CO2 incubator at 37° C. After incubation with the compounds, cells were centrifuged; the supernatant was collected and processed for ELISA to quantitate the amount of IL-2 secreted. A commercial ELISA kit (R&D Systems, Inc. Minneapolis, Minn., USA) was used to estimate the IL-2 concentrations. Amount of IL-2 secreted by cells stimulated with PHA was considered as a 100% maximal signal and the decrease in amount of IL-2 secreted by cells treated with the test compounds was expressed as percent inhibition of the maximal signal. The dose response data was analyzed using 4-parametric sigmoidal dose response (variable slope) curve-fit.

SMILES | IC50
Cc1c(-c2ccc(NC(=O)c3c(F)cccc3F)cc2)ccc2c1OC1(CCC1)CC2 [Example 23, 2,6-Difluoro-N-(4-(8-methylspiro[chroman-2,1′-cyclobutan]-7-yl)phenyl)benzamide] | 50 to 100 nM
Cc1cc2c(cc1-c1ccc(NC(=O)c3c(F)cccc3F)cc1)CCC1(CCC1)O2 [Example 18, 2,6-Difluoro-N-(4-(7-methylspiro[chroman-2,1′-cyclobutan]-6-yl)phenyl)benzamide] | 50 to 100 nM
Cc1c(-c2cnc(NC(=O)c3c(F)cccc3F)cn2)ccc2c1OC(C)(C)CC2 [Example 7, 2,6-Difluoro-N-(5-(2,2,8-trimethylchroman-7-yl)pyrazin-2-yl)benzamide] | 50 to 100 nM
CC1(C)C=C(c2cnc(NC(=O)c3c(F)cccc3F)cn2)c2ccccc2O1 [Example 81, N-(5-(2,2-Dimethyl-2H-chromen-4-yl)pyrazin-2-yl)-2,6-difluorobenzamide] | 50 to 100 nM
Cc1cc2c(cc1-c1ccc(NC(=O)c3c(F)cccc3Cl)cc1)OC1(CCC1)CC2=O [Example 11, 2-Chloro-6-fluoro-N-(4-(6-methyl-4-oxospiro[chroman-2,1′-cyclobutan]-7-yl)phenyl)benzamide] | 25 to 50 nM
Cc1ccc2c(c1)C(c1cnc(NC(=O)c3c(F)cccc3F)cn1)=CC1(CCC1)O2 [Example 76, 2,6-Difluoro-N-(5-(6-methylspiro[chromene-2,1′-cyclobutan]-4-yl)pyrazin-2-yl)benzamide] | 50 to 100 nM
O=C(Nc1ccc(C2=CC3(CCC3)Oc3ccccc32)cn1)c1c(F)cccc1F [Example 72, 2,6-Difluoro-N-(5-(spiro[chromene-2,1′-cyclobutan]-4-yl)pyridin-2-yl)benzamide] | 25 to 50 nM
Cc1cc2c(cc1-c1ccc(NC(=O)c3c(F)cccc3F)cc1)C(=O)CC1(CCC1)O2 [Example 17, 2,6-Difluoro-N-(4-(7-methyl-4-oxospiro[chroman-2,1′-cyclobutan]-6-yl)phenyl)benzamide] | 50 to 100 nM
Cc1cc2c(cc1-c1ccc(C(=O)Nc3c(Cl)cncc3Cl)cc1)OC1(CCC1)CC2 [Example 67, N-(3,5-Dichloropyridin-4-yl)-4-(6-methylspiro[chroman-2,1′-cyclobutan]-7-yl)benzamide] | 25 to 50 nM
Cc1cc2c(cc1-c1ccc(NC(=O)c3c(C)cccc3F)cc1)OC1(CCC1)CC2 [Example 9, 2-Fluoro-6-methyl-N-(4-(6-methylspiro[chroman-2,1′-cyclobutan]-7-yl)phenyl)benzamide] | 25 to 50 nM
COC(=O)C1(C)CC(=O)c2cc(C)c(-c3cnc(NC(=O)c4c(F)cccc4F)cn3)cc2O1 (centres unmarked) [Example 45, Methyl 7-(5-(2,6-difluorobenzamido)pyrazin-2-yl)-2,6-dimethyl-4-oxochroman-2-carboxylate] | 100 to 500 nM
CCc1cc2c(cc1-c1cnc(NC(=O)c3c(F)cccc3F)cn1)OC1(CCC1)CC2=O [Example 41, N-(5-(6-Ethyl-4-oxospiro[chroman-2,1′-cyclobutan]-7-yl)pyrazin-2-yl)-2,6-difluorobenzamide] | 50 to 100 nM
Cc1cc2c(cc1-c1ccc(NC(=O)c3c(F)cccc3F)cc1)OC1(CC2=O)CN(C)C1 [Example 121, N-(4-(1,6′-Dimethyl-4′-oxospiro[azetidine-3,2′-chroman]-7′-yl)phenyl)-2,6-difluorobenzamide] | 25 to 50 nM
Cc1ccc2c(c1)OC(C)(C)C=C2c1ccc(NC(=O)c2c(F)cccc2F)cc1 [Example 87, 2,6-Difluoro-N-(4-(2,2,7-trimethyl-2H-chromen-4-yl)phenyl)benzamide] | 50 to 100 nM
Cc1cc2c(cc1-c1ccc(NC(=O)c3c(F)cccc3F)nc1)OC(C)(CO)CC2=O (centres unmarked) [Example 54, 2,6-Difluoro-N-(5-(2-(hydroxymethyl)-2,6-dimethyl-4-oxochroman-7-yl)pyridin-2-yl)benzamide] | 50 to 100 nM
Cc1ccc2c(c1)OC1(C=C2c2ccc(NC(=O)c3c(F)cccc3F)nc2)CCC1 [Example 109, 2,6-Difluoro-N-(5-(7-methylspiro[chromene-2,1′-cyclobutan]-4-yl)pyridin-2-yl)benzamide] | 100 to 500 nM
Cc1cc2c(cc1-c1ccc(NCc3c(F)cccc3F)cc1)OC1(CCC1)CC2=O [Example 21, 7-(4-((2,6-Difluorobenzyl)amino)phenyl)-6-methylspiro[chroman-2,1′-cyclobutan]-4-one] | 25 to 50 nM
Cc1c(-c2ccc(NC(=O)c3c(F)cccc3F)cc2)ccc2c1OC1(CCC1)CC2=O [Example 19, 2,6-Difluoro-N-(4-(8-methyl-4-oxospiro[chroman-2,1′-cyclobutan]-7-yl)phenyl)benzamide] | 100 to 500 nM

The remaining lines, values ahead:

IC50 | SMILES
25 to 50 nM | Cc1cc2c(cc1-c1ccc(C(=O)Nc3c(F)cccc3F)cc1)OC1(CCC1)CC2 [Example 116, N-(2,6-Difluorophenyl)-4-(6-methylspiro[chroman-2,1′-cyclobutan]-7-yl)benzamide]
25 to 50 nM | Cc1cc2c(cc1-c1ccc(NC(=O)c3c(F)cccc3F)cc1)OC(C)(C)CC2=O [Example 1, 2,6-Difluoro-N-(4-(2,2,6-trimethyl-4-oxochroman-7-yl)phenyl)benzamide]
< 25 nM | Cc1cc2c(cc1-c1ccc(NC(=O)c3c(F)cccc3F)cc1)OC(C)(CO)CC2=O (centres unmarked) [Example 51, 2,6-Difluoro-N-(4-(2-(hydroxymethyl)-2,6-dimethyl-4-oxochroman-7-yl)phenyl)benzamide]
< 25 nM | CCc1cc2c(cc1-c1ccc(NC(=O)c3c(F)cccc3F)cc1)OC(C)(C)CC2=O [Example 2, N-(4-(6-Ethyl-2,2-dimethyl-4-oxochroman-7-yl)phenyl)-2,6-difluorobenzamide]
< 25 nM | Cc1cccc2c1OC(C)(C)C=C2c1cnc(NC(=O)c2c(F)cccc2F)cn1 [Example 89, 2,6-Difluoro-N-(5-(2,2,8-trimethyl-2H-chromen-4-yl)pyrazin-2-yl)benzamide]
< 25 nM | Cc1cccc2c1OC1(C=C2c2ccc(NC(=O)c3c(F)cccc3F)nc2)CCC1 [Example 101, 2,6-Difluoro-N-(5-(8-methylspiro[chromene-2,1′-cyclobutan]-4-yl)pyridin-2-yl)benzamide]
< 25 nM | O=C(Nc1ccc(C2=CC3(CCC3)Oc3ccccc32)cc1)c1c(F)cccc1F [Example 68, 2,6-Difluoro-N-(4-(spiro[chromene-2,1′-cyclobutan]-4-yl)phenyl)benzamide]
< 25 nM | Cc1cc2c(cc1-c1ccc(C(=O)Nc3c(F)cncc3F)cc1)OC1(CCC1)CC2 [Example 66, N-(3,5-Difluoropyridin-4-yl)-4-(6-methylspiro[chroman-2,1′-cyclobutan]-7-yl)benzamide]
< 25 nM | Cc1cc2c(cc1-c1ccc(C(=O)Nc3c(F)cncc3F)cc1)OC(C)(C)CC2 [Example 50, N-(3,5-Difluoropyridin-4-yl)-4-(2,2,6-trimethylchroman-7-yl)benzamide]
< 25 nM | CCc1cc2c(cc1-c1ccc(C(=O)Nc3c(F)cncc3F)cc1)OC(C)(C)CC2 [Example 49, N-(3,5-Difluoropyridin-4-yl)-4-(6-ethyl-2,2-dimethylchroman-7-yl)benzamide]
< 25 nM | Cc1cc2c(cc1-c1ccc(NCc3c(F)cccc3F)nc1)OC1(CCC1)CC2=O [Example 39, 7-(6-((2,6-Difluorobenzyl)amino)pyridin-3-yl)-6-methylspiro[chroman-2,1′-cyclobutan]-4-one]
< 25 nM | Cc1cc2c(cc1-c1ccc(NC(=O)c3c(F)cccc3F)cc1)OC1(CCC1)CC2=O [Example 16, 2,6-Difluoro-N-(4-(6-methyl-4-oxospiro[chroman-2,1′-cyclobutan]-7-yl)phenyl)benzamide]
< 25 nM | CCc1cc2c(cc1-c1ccc(NC(=O)c3c(F)cccc3F)cc1)OC1(CCC1)CC2=O [Example 20, N-(4-(6-Ethyl-4-oxospiro[chroman-2,1′-cyclobutan]-7-yl)phenyl)-2,6-difluorobenzamide]
< 25 nM | Cc1ccc2c(c1)C(c1ccc(NC(=O)c3c(F)cccc3F)cc1)=CC1(CCC1)O2 [Example 75, 2,6-Difluoro-N-(4-(6-methylspiro[chromene-2,l′-cyclobutan]-4-yl)phenyl)benzamide]
